{"source": "patent US6599743B2", "about": "“Method for microproduction of tea plants from leaf explants” (Council of Scientific & Industrial Research, priority 2001, dated 2003)", "tested_on": "rhizogenic calli derived from leaf explants", "test": "adventitious shoot bud formation on rhizogenic calli derived from tea leaf explants", "assay_type": "cell-based, Camellia sinensis", "conditions": "rhizogenic calli transferred to auxin free MS medium with 0.5 to 8 mg/l 6 Benzyl amino purine", "protocol": "iv) For adventitious shoot bud formation, the rhizogenic callus cultures obtained from step (iii) were transferred to (0.8%) agar solidified basal MS medium supplemented with 6 Benzyl amino purine (0.5 to 8.0 mg/l) and 3% sucrose.\nAfter 4-10 weeks, the rhizogenic callus was transferred to (0.8%) agar solidified basal MS medium supplemented with 3% sucrose and 0.5 to 8.0 mg/l 6 Benzyl amino purine for adventitious shoot bud formation."}
{"compound": "c1ccc(CNc2ncnc3nc[nH]c23)cc1", "note": "[6 Benzyl amino purine]", "values": [{"measurement": "adventitious shoot bud development", "result": "more than 30%"}, {"measurement": "explants responding (leaf explant response)", "result": "~100", "unit": "%"}]}
